Assay results reported in patent US10351586B2, “Cytidine derivative dimers and applications thereof” (CHANGZHOU FANGYUAN PHARMACEUTICAL CO., LTD, priority 2014, dated 2019).
Marks after values point to notes of the source that are not given here.

Assays:
[1] = tested on: HCT-116 human colon cancer xenografts; assay: Tumor growth inhibition of HCT-116 human colon cancer xenografts in nude mice; type: in vivo, Balb/c nude mice; conditions: for Relative tumor proliferation rate (T/C %) / Relative tumor volume (RTV) / Tumor growth inhibition rate (TGI %) / Tumor volume of HCT-116 human colon cancer xenografts: single IP injection (QD×1), D1 and D2 400 mg/kg, D3 350 mg/kg, D4 300 mg/kg; for Tumor volume of HCT-116 human colon cancer xenografts: Mean±SEM
Experimental: 2. Preparation of the test substance was performed by dissolving the test substance using the following solvents:
3. Animal experiments were performed. […] Animals were numbered using their tail number.
4.1 Tumor cells were human HCT-116 colon cancer cells purchased from the Institute of Cell Biology, Chinese Academy of Sciences (Beijing, China). F-12 medium (containing 10% FBS) was used to culture cells in a carbon dioxide incubator at about 37° C., saturated humidity, under 5% CO2 and 95% air. Before inoculation, cells in logarithmic growth phase were collected. After digested by 0.25% trypsin, the cells were washed with PBS once. The cells were resuspended with serum-free medium and counted. Serum-free medium were used for cell resuspension, until the cell concentration was adjusted to about 3×10^7 cell/mL.
4.2 Animal inoculation and grouping were performed.
The diameters (D) of the tumor nodules were measured three times a week with a circle sizer ruler. In addition, the following formula was applied to calculate the volume of the tumor nodules (V): V=[…](D/2)^3 generally for a spherical shape. Evaluation indexes of antitumor activity were tumor growth inhibition rate TGI (%) and relative tumor proliferation rate T/C (%).
The calculation formula of TGI was: TGI (%)=(Vcontrol−VTreatment)/Vcontrol)×100%. The relative tumor volume (RTV) was calculated by: RTV=Vt/V0, where V0 is the tumor volume at the time of group administration, and Vt is the tumor volume at the time of measurement.
The mice were weighed 3 times every week.
4.5 Data and statistical analysis were provided.

[2] = Body weight / toxicity of a single intraperitoneal injection in HCT-116 colon tumor-bearing nude mice; conditions: D3 350 mg/kg, D4 300 mg/kg; for Average rate of weight change of the animals / Average weight of the animals: single IP injection (QD×1), D1 and D2 400 mg/kg; for Average weight of the animals: Mean±SEM
Experimental: Corresponding test substance was weighed and put into a 5 mL glass tube. The test substance was dissolved in ethanol under the stirring by a 5 mm magnetic stirrer. After a complete dissolution, Cremophor EL was added with continuous stirring. Immediately prior to the user of the test substance, the labeled amount of physiological saline was added and stirred.
Animal experiments were performed. The animals were female Balb/c nude mice at specific pathogen free (SPF) level and were supplied from Shanghai Sippr/BK Lab Animal Ltd. (Shanghai, China). […] These animals were at the age of about 7 weeks to about 9 weeks at the beginning of the experiments and had the weight of about 18 grams to about 22 grams at the beginning of the experiment. The animals had acclimatization duration of about 5 days to about 7 days. Animals were numbered using their tail number. The animal room was maintained at about 23±2° C., 40%-70% humidity, with alternating light and dark every 12 hours.
4.2 Animal inoculation and grouping were performed. Under aseptic conditions, each nude mice was injected with 0.1 mL cell suspension into the right hind leg subcutaneously (3×10^6 cell/mouse). When the size of the tumor grew to have a volume of about 60-150 mm^3, nude mice with a similar tumor size and a desirable shape (e.g., with substantially same shape such as a substantially spherical shape, without having irregular shapes or multiple tumors grouped together) were selected and grouped. In the experiment, there were six mice in each group.
The mice in control group were injected with a mixed solution including ethanol, Cremophor EL and normal saline at a ratio of 5:5:90.
4.4 Clinical symptoms were provided. All clinical symptoms of each animal were recorded at the beginning of the experiments and during the experiments. The observation was performed at the same time every day.
After administration of the test substance, when the weight reduction was >20%, when the animal was dying, or when the tumor volume exceeds about 2800 mm^3, the animal were euthanized by applying CO2. The tumor was separated and weighed, an autopsy was performed, and visual inspection was conducted and recorded on whether there were pathological changes in the organs.

[3] = D1 400 mg/kg Day 7, D2 400 mg/kg Day 9, D3 350 mg/kg Day 11, D4 300 mg/kg Day 11, single IP

With `O=C(CCCC(=O)OC[C@H]1O[C@@H](n2ccc(NC(=O)OCc3ccccc3)nc2=O)C(F)(F)[C@@H]1O)OC[C@H]1O[C@@H](n2ccc(NC(=O)OCc3ccccc3)nc2=O)C(F)(F)[C@@H]1O` [Compound D3, 1,5-di-[4-N-(benzyloxycarbonyl)-2′-deoxy-2′,2′-difluoro-cytidine]glutarate] the “Relative tumor proliferation rate, minimum” value [1, 3] was 3.41%, the “Tumor inhibition rate, maximum” value [1, 3] was 98.54% and the “Relative tumor proliferation rate (T/C %)” value ([1]; Day 0) was 0.00%. For the same compound, the “Relative tumor volume (RTV)” value ([1]; Day 0) was 1.00, the “Tumor growth inhibition rate (TGI %)” value ([1]; Day 0) was 0.00% and the “Tumor volume of HCT-116 human colon cancer xenografts” value ([1]; Day 0) was 38.77 ± 4.33** mm^3. For the same compound, the “Relative tumor proliferation rate (T/C %)” value ([1]; Day 1) was 60.98%, the “Relative tumor volume (RTV)” value ([1]; Day 1) was 0.98 ± 0.12 and the “Tumor growth inhibition rate (TGI %)” value ([1]; Day 1) was 79.83%. For the same compound, the “Tumor volume of HCT-116 human colon cancer xenografts” value ([1]; Day 1) was 36.40 ± 3.98** mm^3, the “Relative tumor proliferation rate (T/C %)” value ([1]; Day 2) was 49.58% and the “Relative tumor volume (RTV)” value ([1]; Day 2) was 0.98 ± 0.12. The “Tumor growth inhibition rate (TGI %)” value ([1]; Day 2) was 83.59%, the “Tumor volume of HCT-116 human colon cancer xenografts” value ([1]; Day 2) was 36.40 ± 3.98** mm^3 and the “Relative tumor proliferation rate (T/C %)” value ([1]; Day 4) was 23.26%. The “Relative tumor volume (RTV)” value ([1]; Day 4) was 0.65 ± 0.10, the “Tumor growth inhibition rate (TGI %)” value ([1]; Day 4) was 92.26% and the “Tumor volume of HCT-116 human colon cancer xenografts” value ([1]; Day 4) was 23.00 ± 3.08** mm^3. The “Relative tumor proliferation rate (T/C %)” value ([1]; Day 7) was 6.76%, the “Relative tumor volume (RTV)” value ([1]; Day 7) was 0.34 ± 0.06 and the “Tumor growth inhibition rate (TGI %)” value ([1]; Day 7) was 97.08%. The “Tumor volume of HCT-116 human colon cancer xenografts” value ([1]; Day 7) was 12.62 ± 3.10** mm^3, the “Relative tumor proliferation rate (T/C %)” value ([1]; Day 9) was 4.71% and the “Relative tumor volume (RTV)” value ([1]; Day 9) was 0.32 ± 0.05. The “Tumor growth inhibition rate (TGI %)” value ([1]; Day 9) was 97.86%, the “Tumor volume of HCT-116 human colon cancer xenografts” value ([1]; Day 9) was 12.62 ± 3.10** mm^3 and the “Relative tumor proliferation rate (T/C %)” value ([1]; Day 11) was 3.41%. For the same compound, the “Relative tumor volume (RTV)” value ([1]; Day 11) was 0.37 ± 0.09, the “Tumor growth inhibition rate (TGI %)” value ([1]; Day 11) was 98.54% and the “Tumor volume of HCT-116 human colon cancer xenografts” value ([1]; Day 11) was 14.28 ± 3.69** mm^3. For the same compound, the “Relative tumor proliferation rate (T/C %)” value ([1]; Day 14) was 5.78%, the “Relative tumor volume (RTV)” value ([1]; Day 14) was 1.00 ± 0.00 and the “Tumor growth inhibition rate (TGI %)” value ([1]; Day 14) was 97.43%. For the same compound, the “Tumor volume of HCT-116 human colon cancer xenografts” value ([1]; Day 14) was 36.98 ± 4.82** mm^3, the “Relative tumor proliferation rate (T/C %)” value ([1]; Day 16) was 10.49% and the “Relative tumor volume (RTV)” value ([1]; Day 16) was 2.17 ± 0.14. For the same compound, the “Tumor growth inhibition rate (TGI %)” value ([1]; Day 16) was 95.58%, the “Tumor volume of HCT-116 human colon cancer xenografts” value ([1]; Day 16) was 80.10 ± 11.07** mm^3 and the “Relative tumor proliferation rate (T/C %)” value ([1]; Day 18) was 16.55%. For the same compound, the “Relative tumor volume (RTV)” value ([1]; Day 18) was 3.16 ± 0.39, the “Tumor growth inhibition rate (TGI %)” value ([1]; Day 18) was 93.97% and the “Tumor volume of HCT-116 human colon cancer xenografts” value ([1]; Day 18) was 120.40 ± 23.44** mm^3. The “Relative tumor proliferation rate (T/C %)” value ([1]; Day 21) was 23.70%, the “Relative tumor volume (RTV)” value ([1]; Day 21) was 5.55 ± 0.66 and the “Tumor growth inhibition rate (TGI %)” value ([1]; Day 21) was 91.65%. For the same compound, the “Tumor volume of HCT-116 human colon cancer xenografts” value ([1]; Day 21) was 204.05 ± 36.25 mm^3, the “Relative tumor proliferation rate (T/C %)” value ([1]; Day 23) was 31.41% and the “Relative tumor volume (RTV)” value ([1]; Day 23) was 6.21 ± 0.61. The “Tumor growth inhibition rate (TGI %)” value ([1]; Day 23) was 90.30%, the “Tumor volume of HCT-116 human colon cancer xenografts” value ([1]; Day 23) was 229.06 ± 36.15 mm^3 and the “Relative tumor proliferation rate (T/C %)” value ([1]; Day 25) was 33.40%. For the same compound, the “Relative tumor volume (RTV)” value ([1]; Day 25) was 7.22 ± 0.53, the “Tumor growth inhibition rate (TGI %)” value ([1]; Day 25) was 89.70% and the “Tumor volume of HCT-116 human colon cancer xenografts” value ([1]; Day 25) was 266.11 ± 39.63 mm^3. The “Relative tumor proliferation rate (T/C %)” value ([1]; Day 28) was 43.93%, the “Relative tumor volume (RTV)” value ([1]; Day 28) was 9.28 ± 0.73 and the “Tumor growth inhibition rate (TGI %)” value ([1]; Day 28) was 87.09%. For the same compound, the “Tumor volume of HCT-116 human colon cancer xenografts” value ([1]; Day 28) was 347.17 ± 60.84 mm^3, the “Relative tumor proliferation rate (T/C %)” value ([1]; Day 30) was 52.09% and the “Relative tumor volume (RTV)” value ([1]; Day 30) was 12.93 ± 0.90. The “Tumor growth inhibition rate (TGI %)” value ([1]; Day 30) was 82.93%, the “Tumor volume of HCT-116 human colon cancer xenografts” value ([1]; Day 30) was 479.01 ± 75.54 mm^3 and the “Inhibition of growth of HCT-116 human colon cancer xenografts (in words)” value ([1]; single IP injection, 300-400 mg/kg) was “higher tumor inhibition rates”. For the same compound, the “Average rate of weight change of the animals” value ([2]; Day 0) was 0.00%, the “Average weight of the animals” value ([2]; Day 0) was 19.95 ± 0.09 g and the “Average rate of weight change of the animals” value ([2]; Day 1) was −3.59 ± 0.66%. For the same compound, the “Average weight of the animals” value ([2]; Day 1) was 19.23 ± 0.31 g, the “Average rate of weight change of the animals” value ([2]; Day 2) was −11.25 ± 0.96 % and the “Average weight of the animals” value ([2]; Day 2) was 17.70 ± 0.26 g. The “Average rate of weight change of the animals” value ([2]; Day 4) was −8.10 ± 2.84%, the “Average weight of the animals” value ([2]; Day 4) was 18.24 ± 0.58 g and the “Average rate of weight change of the animals” value ([2]; Day 7) was −1.68 ± 2.50%. For the same compound, the “Average weight of the animals” value ([2]; Day 7) was 19.51 ± 0.48 g, the “Average rate of weight change of the animals” value ([2]; Day 9) was 4.50 ± 1.93 % and the “Average weight of the animals” value ([2]; Day 9) was 20.74 ± 0.38 g. The “Average rate of weight change of the animals” value ([2]; Day 11) was 6.38 ± 1.68 %, the “Average weight of the animals” value ([2]; Day 11) was 21.12 ± 0.41 g and the “Average rate of weight change of the animals” value ([2]; Day 14) was 7.12 ± 1.19 %. The “Average weight of the animals” value ([2]; Day 14) was 21.26 ± 0.21 g, the “Average rate of weight change of the animals” value ([2]; Day 16) was 10.78 ± 0.88 % and the “Average weight of the animals” value ([2]; Day 16) was 22.00 ± 0.40 g. The “Average rate of weight change of the animals” value ([2]; Day 18) was 13.71 ± 0.63 %, the “Average weight of the animals” value ([2]; Day 18) was 22.58 ± 0.38 g and the “Average rate of weight change of the animals” value ([2]; Day 21) was 10.72 ± 1.6 %. For the same compound, the “Average weight of the animals” value ([2]; Day 21) was 21.98 ± 0.41 g, the “Average rate of weight change of the animals” value ([2]; Day 23) was 13.08 ± 2.31 % and the “Average weight of the animals” value ([2]; Day 23) was 22.44 ± 0.41 g. The “Average rate of weight change of the animals” value ([2]; Day 25) was 13.34 ± 2.34 %, the “Average weight of the animals” value ([2]; Day 25) was 22.50 ± 0.53 g and the “Average rate of weight change of the animals” value ([2]; Day 28) was 11.44 ± 2.29 %. For the same compound, the “Average weight of the animals” value ([2]; Day 28) was 22.12 ± 0.48 g, the “Average rate of weight change of the animals” value ([2]; Day 30) was 15.37 ± 2.93% and the “Average weight of the animals” value ([2]; Day 30) was 22.90 ± 0.60 g. For the same compound, the “Toxicity in tumor-bearing mice (in words)” value ([2]; single IP injection, D2 400 mg/kg, judged from body weight versus control) was “no toxicity”.
